Series [1] deals with JB6. As to the kind of experiment: Cell proliferation inhibition, ALCL line JB6. Type of series: cell-based. The note with it: Example 4, most sensitive cell lines, read-out: Proliferation IC50 JB6. The source says:
(§1) Cell proliferation inhibition assays were run for compound (II) with the five target NPM-ALK-dependent ALCL cell lines (Karpas 299, SuDHL-1, JB6, SupM2, UConn) and 12 unrelated cell lines (HEK293, CHO-K1, MCF7, HepG2, H292, H520, H1581, H596, H522, CHA-GO-K1, UMC-11, SK-MES1). […] The pronounced target cell-killing effect is also observed (molecular mechanisms to be determined).

Series [2] addresses T1, TrkC (Homo sapiens, UniProt Q16288).
T1 construct: purchased Invitrogen (SelectScreen service)
Description: Invitrogen SelectScreen Z-lyte kinase assay, TrkC. Type of series: biochemical. To be noted: 100 μM ATP. On the procedure: (§2) To evaluate selectivity versus other kinases, inhibition of various kinases by compound (II) was determined. In particular, IC50s for TrkA, Jak2, Axl tyrosine kinases were determined using ADP Hunter (DiscoverX) kinase assay. Single point profiling of compound (II) on 50 human tyrosine kinases and 10 Ser-Thr kinases was done at Upstate/Millipore by radiometric assay. […] The subset of the 520 kinases in the human kinome that were tested was strategically selected to cover most of the therapeutically relevant tyrosine kinases and to represent major branches of serine-threonine kinases.
(§3) Compound (II) was a multitargeted tyrosine kinase (TK) inhibitor with a distinct pattern of inhibition focused on ALK, Trk family, Ros and Ret kinases. Invitrogen SelectScreen (Z-lyte assay) produced the following IC5O values for this set of kinases: ALK 9.75 nM, TrkA 1.5 nM, TrkB 1.4 nM, TrkC 1.8 nM, Ret 7.1 nM, Ros 1.8 nM (all measured at 100 μM ATP). […] About 70% of the 50 TKs tested have selectivity in excess of 50-fold for ALK and higher for Ret, Ros and Trk family members.

Series [3] concerns the target T2, Src (Homo sapiens, UniProt P12931).
T2 construct: purchased Invitrogen
As to the kind of experiment: Invitrogen SelectScreen Z-lyte kinase assay, Src. Type of series: biochemical.

Series [4] addresses T3, Fer (Homo sapiens, UniProt P16591).
T3 construct: purchased Invitrogen
As to the kind of experiment: Invitrogen SelectScreen Z-lyte kinase assay, Fer. Format: biochemical.

Series [5] has as its system 10 Ser-Thr kinases. Description: Single point radiometric profiling on Ser-Thr kinases (Upstate/Millipore). To be noted: 50 nM compound. Format: biochemical. On the procedure: as §2
The subject of series [6] is non-ALKdependent cell lines. As to the kind of experiment: Cell proliferation inhibition, non-ALK-dependent control cell lines. Type of series: cell-based. To be noted: 12 unrelated cell lines; read-out: Lowest IC50s for non-ALK-dependent cell lines.
Excerpt: as §1

Series [7] can be described thus: Maximum Tolerated Dose toxicity study in mice. To be noted: both, CD-1, mouse, in vivo, 14 days. On the procedure: The toxicity study in mice (Maximum Tolerated Dose) was done with CD-1 strain of mice in groups of 50% male-50% female animals (10 animals per group) at the dosing levels of 2.5, 5, 10, and 20 mg/kg (intarperitoneal) and 5 and 10 mg/kg (peroral). Animals were dosed for 14 days, bid (the actual daily doses were twice those shown) and observed without dosing for additional 14 days. […].

A short description of series [8]: Solubility in acidic aqueous formulation vehicle. Type of series: physicochemical. The note with it: pH 4-6. As for the experimental part: The solubility of compound (II) in aqueous buffers has been tested at Cerep, as part of ADMET Study 13170. […] Such aqueous solubility was at least as good as or higher than a typical one for a small molecule, ATP-competitive kinase inhibitor. The compound has much higher aqueous solubility at lower pH. 20-50 mM acetic or tartaric acid (pH 4-6) was used to dissolve the compound at concentrations up to 5 mg/ml (or ˜10 mM); this type of formulation was used for our animal toxicity and PK studies. Compound (II) was also well soluble in such organic solvents as DMSO or N-methyl pyrrolidone and can be subsequently solubilized in aqueous formulations containing 2% Tween 80 or 5-20% Solutol HS15.

Series [9] in a line: Pharmacokinetics study in CD-1 mice (IV, PO). The note with it: IV 1 mg/kg, time point 0.35, individual animals A-D. Type of series: in vivo.
For series [10], the target named is T4, ALK (Homo sapiens, UniProt Q9UM73). Description: Invitrogen SelectScreen Z-lyte kinase assay, ALK. The note with it: 100 μM ATP. Type of series: biochemical. More on the design: purchased Invitrogen (SelectScreen service). On the procedure:
as §2, §3

A short description of series [11]: Caco-2 (TC7) A-B Permeability test (pH 6.5/7.4). The note with it: human. A general note: Passage across Caco-2 layers is used to estimate intestinal permeability.
For series [12], the target named is T4, ALK. As to the kind of experiment: Biochemical ALK inhibition (ADP Hunter, radiometric, Z-lyte). The arrangement: purchased DiscoveRx (ADP Hunter kit); Upstate/Millipore; Invitrogen. On the procedure:
Compound (II) (also labeled as CRL241 in some of the figures) was tested using several diverse assay technologies utilizing common assay readouts such as ADP generation detection and FRET or radiolabel-based measurement of phosphate incorporation in the substrate.
Biochemical potency of ALK inhibition (IC50) for compound (II) was determined in multiple experiments using a commercial ADP detection assay (ADP Hunter, DiscoveRx), and in radiometric (Upstate/Millipore) or FRET based fluorimetric (Z-lyte, Invitrogen) assays.

Where “and” joins values, the source holds several entries; their conditions need not be identical. Identical values can stand only once.

T4 sequence (Q9UM73 19-1620): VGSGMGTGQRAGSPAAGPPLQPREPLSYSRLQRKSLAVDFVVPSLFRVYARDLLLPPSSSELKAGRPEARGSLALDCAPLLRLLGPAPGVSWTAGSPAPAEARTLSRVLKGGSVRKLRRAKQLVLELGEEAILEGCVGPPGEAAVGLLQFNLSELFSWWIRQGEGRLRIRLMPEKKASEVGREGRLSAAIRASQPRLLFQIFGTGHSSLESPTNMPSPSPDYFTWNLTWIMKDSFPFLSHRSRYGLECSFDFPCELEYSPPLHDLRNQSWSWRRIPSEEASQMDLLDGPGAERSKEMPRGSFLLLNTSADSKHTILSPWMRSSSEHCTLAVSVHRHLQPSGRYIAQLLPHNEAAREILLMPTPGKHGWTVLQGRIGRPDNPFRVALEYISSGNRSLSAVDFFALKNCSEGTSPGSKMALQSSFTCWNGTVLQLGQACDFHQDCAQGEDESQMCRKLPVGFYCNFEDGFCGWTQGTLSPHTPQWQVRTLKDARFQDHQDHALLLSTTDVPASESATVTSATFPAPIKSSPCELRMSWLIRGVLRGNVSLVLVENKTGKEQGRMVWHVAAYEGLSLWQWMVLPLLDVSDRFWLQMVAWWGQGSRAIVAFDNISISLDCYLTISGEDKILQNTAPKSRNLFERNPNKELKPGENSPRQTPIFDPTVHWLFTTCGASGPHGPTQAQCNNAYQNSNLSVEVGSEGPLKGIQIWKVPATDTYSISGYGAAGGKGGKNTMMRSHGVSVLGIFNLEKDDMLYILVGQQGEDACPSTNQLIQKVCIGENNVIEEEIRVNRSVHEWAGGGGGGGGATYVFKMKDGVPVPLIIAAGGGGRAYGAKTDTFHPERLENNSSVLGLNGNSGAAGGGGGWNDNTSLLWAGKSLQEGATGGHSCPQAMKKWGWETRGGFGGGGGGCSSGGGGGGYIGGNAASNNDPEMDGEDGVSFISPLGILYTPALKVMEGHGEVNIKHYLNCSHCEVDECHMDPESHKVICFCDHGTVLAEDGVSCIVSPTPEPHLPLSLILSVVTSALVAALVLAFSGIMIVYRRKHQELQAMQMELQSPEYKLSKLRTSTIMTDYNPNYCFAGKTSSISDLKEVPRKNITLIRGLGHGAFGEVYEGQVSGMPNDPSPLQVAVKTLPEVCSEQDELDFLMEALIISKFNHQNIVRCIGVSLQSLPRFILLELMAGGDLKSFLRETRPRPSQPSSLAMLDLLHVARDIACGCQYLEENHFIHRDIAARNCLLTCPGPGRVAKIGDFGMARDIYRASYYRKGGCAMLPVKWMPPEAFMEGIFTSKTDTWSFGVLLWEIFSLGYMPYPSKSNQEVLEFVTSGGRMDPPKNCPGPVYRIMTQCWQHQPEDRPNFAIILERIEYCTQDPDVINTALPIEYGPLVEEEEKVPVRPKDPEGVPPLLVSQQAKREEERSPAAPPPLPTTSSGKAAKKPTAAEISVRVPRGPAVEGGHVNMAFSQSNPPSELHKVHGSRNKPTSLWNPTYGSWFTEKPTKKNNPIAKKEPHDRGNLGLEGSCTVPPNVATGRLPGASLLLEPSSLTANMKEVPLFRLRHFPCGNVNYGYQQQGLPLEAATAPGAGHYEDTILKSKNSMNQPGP
T2 sequence (P12931 whole entry): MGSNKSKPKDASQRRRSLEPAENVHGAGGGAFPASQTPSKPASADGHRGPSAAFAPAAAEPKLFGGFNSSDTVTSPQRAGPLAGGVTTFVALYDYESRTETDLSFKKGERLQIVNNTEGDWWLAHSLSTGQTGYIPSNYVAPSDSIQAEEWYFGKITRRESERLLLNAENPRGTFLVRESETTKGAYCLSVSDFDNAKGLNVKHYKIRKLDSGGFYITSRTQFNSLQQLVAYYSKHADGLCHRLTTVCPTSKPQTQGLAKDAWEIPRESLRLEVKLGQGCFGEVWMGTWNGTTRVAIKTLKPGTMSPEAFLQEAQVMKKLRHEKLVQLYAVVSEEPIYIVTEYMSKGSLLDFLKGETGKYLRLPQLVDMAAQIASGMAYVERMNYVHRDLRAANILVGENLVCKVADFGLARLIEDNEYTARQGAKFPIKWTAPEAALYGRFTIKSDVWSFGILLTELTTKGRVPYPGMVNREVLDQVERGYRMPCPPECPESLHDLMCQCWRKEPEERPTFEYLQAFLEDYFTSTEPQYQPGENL
T1 sequence (Q16288 32-839): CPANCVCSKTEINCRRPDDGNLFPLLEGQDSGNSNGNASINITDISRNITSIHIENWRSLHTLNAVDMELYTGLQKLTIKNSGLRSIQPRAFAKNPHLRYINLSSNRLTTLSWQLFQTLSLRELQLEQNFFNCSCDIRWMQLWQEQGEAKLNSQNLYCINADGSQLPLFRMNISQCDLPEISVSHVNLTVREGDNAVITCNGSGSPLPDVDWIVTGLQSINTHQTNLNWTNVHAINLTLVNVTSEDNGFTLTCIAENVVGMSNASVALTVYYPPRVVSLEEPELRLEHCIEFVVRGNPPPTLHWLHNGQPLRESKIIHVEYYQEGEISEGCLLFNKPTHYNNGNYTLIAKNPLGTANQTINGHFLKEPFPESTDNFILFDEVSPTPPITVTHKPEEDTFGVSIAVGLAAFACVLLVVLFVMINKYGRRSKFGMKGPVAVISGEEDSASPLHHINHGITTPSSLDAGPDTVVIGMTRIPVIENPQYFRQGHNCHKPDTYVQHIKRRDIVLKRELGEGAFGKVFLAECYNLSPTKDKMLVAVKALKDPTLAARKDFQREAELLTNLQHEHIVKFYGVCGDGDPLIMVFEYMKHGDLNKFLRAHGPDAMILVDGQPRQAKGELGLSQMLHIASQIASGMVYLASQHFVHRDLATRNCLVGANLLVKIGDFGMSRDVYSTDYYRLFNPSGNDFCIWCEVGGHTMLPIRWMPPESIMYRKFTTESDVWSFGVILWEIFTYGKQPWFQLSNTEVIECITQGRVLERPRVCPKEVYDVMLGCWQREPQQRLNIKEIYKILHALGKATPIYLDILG
T3 sequence (P16591 whole entry): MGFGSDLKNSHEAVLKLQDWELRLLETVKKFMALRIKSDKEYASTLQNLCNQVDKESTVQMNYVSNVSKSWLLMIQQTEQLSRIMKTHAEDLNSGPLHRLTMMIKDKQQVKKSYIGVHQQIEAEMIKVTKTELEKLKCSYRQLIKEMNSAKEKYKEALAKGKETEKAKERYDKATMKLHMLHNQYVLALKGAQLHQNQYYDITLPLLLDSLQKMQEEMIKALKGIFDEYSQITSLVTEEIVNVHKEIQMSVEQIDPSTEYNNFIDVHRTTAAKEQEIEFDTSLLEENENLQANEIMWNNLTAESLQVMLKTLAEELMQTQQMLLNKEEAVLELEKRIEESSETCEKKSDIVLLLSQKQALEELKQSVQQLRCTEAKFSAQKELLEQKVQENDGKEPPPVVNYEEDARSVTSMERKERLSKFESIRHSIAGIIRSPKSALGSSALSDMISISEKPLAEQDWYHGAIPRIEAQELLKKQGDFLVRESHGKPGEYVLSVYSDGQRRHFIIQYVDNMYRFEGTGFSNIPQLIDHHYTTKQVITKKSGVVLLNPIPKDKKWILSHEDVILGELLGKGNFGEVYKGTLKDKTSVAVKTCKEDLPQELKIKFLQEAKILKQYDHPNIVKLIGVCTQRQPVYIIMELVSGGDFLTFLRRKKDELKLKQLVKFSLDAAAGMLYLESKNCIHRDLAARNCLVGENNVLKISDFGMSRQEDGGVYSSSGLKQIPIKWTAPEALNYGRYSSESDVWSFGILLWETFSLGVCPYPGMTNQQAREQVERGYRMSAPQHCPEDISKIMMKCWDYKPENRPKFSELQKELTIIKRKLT

Turning to `Cc1ccc(F)cc1C[C@H](C)Nc1cc[nH]c(=O)c1-c1nc2cc3c(cc2[nH]1)C(=O)N(CCN1CCCC1)C3` [compound (II)], the IC50 in series [1] is 5 to 10 nM; in series [2], 1.8 nM; in series [3] it was 32 nM; in series [4], 42 nM; in [6], approximately 2500 nM; in [10] it was 9.75 nM. Moreover, the IC50 in [12] (ADP Hunter, radiometric and Z-lyte assays, 100 or 200 μM ATP) is 9 to 11 nM. Besides, in [5], the “Inhibition of 10 structurally diverse Ser-Thr kinases” value is listed as “did not cause any significant inhibition”. Moreover, the “Adverse effects at 5 and 10 mg/kg oral” value in series [7] was “No adverse effects were observed”. Further, the “Tolerability at 2.5 or 5 mg/kg IP” value in series [7] is listed as “safe”. For the same molecule, the “Tolerability at 10 and 20 mg/kg IP” value in series [7] is listed as “exceeded MTD”. Moreover, the “Concentration dissolved in 20-50 mM acetic or tartaric acid” value in series [8] is on record as “up to 5 mg/ml”. The “Plasma Concentration” value in series [9] was 100.41 ng/mL and 89.28 ng/mL and 41.61 ng/mL and 64.53 ng/mL. Also, the Papp A→B (commonly the apparent permeability from the apical to the basolateral side of a cell layer) at 10 µM came out at 0.4 ×10⁻⁶ cm/s in series [11] (Caco-2, pH 6.5, Caco-2 (TC7) A-B permeability coefficient, pH 6.5/7.4, 10 μM compound); 0.4 ×10⁻⁶ cm/s in [11] (Caco-2, pH 6.5, Mean Permeability, A-B Permeability (TC7, pH 6.5/7.4), test concentration 1.0E−05 M, mean of n = 2); 0.41 ×10⁻⁶ cm/s in [11] (Caco-2, pH 6.5, Permeability 1st, A-B Permeability (TC7, pH 6.5/7.4), test concentration 1.0E−05 M, 1st replicate); 0.44 ×10⁻⁶ cm/s in [11] (Caco-2, pH 6.5, Permeability 2nd, A-B Permeability (TC7, pH 6.5/7.4), test concentration 1.0E−05 M, 2nd replicate). The recovery at 10 µM stood at 49% in [11] (Caco-2, pH 6.5, Caco-2 recovery, pH 6.5/7.4, 10 μM compound); 49% in [11] (Caco-2, pH 6.5, Mean Recovery, A-B Permeability (TC7, pH 6.5/7.4), test concentration 1.0E−05 M, mean of n = 2); 50% in [11] (Caco-2, pH 6.5, Present Recovery 1st, A-B Permeability (TC7, pH 6.5/7.4), test concentration 1.0E−05 M, 1st replicate); 47% in series [11] (Caco-2, pH 6.5, Present Recovery 2nd, A-B Permeability (TC7, pH 6.5/7.4), test concentration 1.0E−05 M, 2nd replicate). Also, the “Selectivity for ALK versus the related IR and IGF1R” value in [12] (radiometric assay (Upstate/Millipore)) is recorded as 10-15 fold.

The values are drawn from patent US9249147B2, “Tyrosine kinase inhibitors” (CHEMBRIDGE CORPORATION, priority 2008, dated 2016).
